Values quoted from earlier work, collected in patent publication US20220211847A1, “COMBINATION OF MONALIZUMAB, DURVALUMAB, CHEMOTHERAPY AND BEVACIZUMAB OR CETUXIMAB FOR THE TREATMENT OF COLORECTAL CANCER” (MEDIMMUNE LIMITED, priority 2019, published 2022).
Read-outs that look alike come from different tables or passages of the source.

Key:
[1] = tested on: microsatellite instability-high CRC or mismatch repair deficient CRC; conditions: monotherapy; MSI-high or mismatch repair deficient CRC
CRC = conditions: similar population
[2] = tested on: MSI high CRCs and MSS CRCs
[3] = tested on: unresectable metastatic disease (mCRC); conditions: added to oxaliplatin-based regimens

nivolumab
ORR [1]: 28%

CNC(=O)c1cc(Oc2ccc(NC(=O)Nc3ccc(Cl)c(C(F)(F)F)c3)c(F)c2)ccn1 [regorafenib]
median OS (CRC): 6.4 months

pembrolizumab: humanized monoclonal IgG4 antibody directed against human cell surface receptor PD-1
objective response rate (ORR) ([2]; 10 mg/kg Q2W, microsatellite proficient CRC): 0%
immune-related objective response rate ([2]; MSI high CRCs): 40%
immune-related progression free survival rate ([2]; MSI high CRCs): 78%
patients who experienced disease progression ([2]; MSI-H CRC): 1 of 10
patients who experienced disease progression ([2]; MSS CRC): 11/18
immune-related objective response rate ([2]; MSS CRCs): 0%
immune-related progression free survival rate ([2]; MSS CRCs): 11%

bevacizumab: recombinant humanized monoclonal antibody directed against human vascular endothelial growth factor (VEGF)
increase in Progression-free survival (PFS) compared with regimens without bevacizumab [3]: 1.4 months
difference in Overall Survival (OS) ([3]; not statistically significant): 1.4 months
